Assay results reported in patent US20250302795A1, “SMALL MOLECULE COMPOUNDS WITH NEGATIVE REGULATORY EFFECTS ON Nrf2 SIGNALING [sequence] AND THEIR POTENTIAL APPLICATIONS” (Beijing Hebabiz Biotechnology Co., Inc., priority 2022, published 2025).

Legend:
Format in all cases: in vivo, rat
[1] = Body weight of rats, high-fat diet non-alcoholic steatohepatitis model; conditions: positive control group, in g (unit assumed)
Protocol: The normal control group was fed a standard diet for twelve weeks while the other groups were fed a high-fat diet consisting of 88% basal diet+10% lard+2% cholesterol for twelve weeks. After establishing the model, the drug groups received their respective treatments at a dosage of 10 ml/kg while the normal and model groups received an equal volume of 0.5% CMC-Na solution. The rats were provided with ad libitum access to water and food, while the animal chamber was maintained under controlled conditions of quietness, natural lighting, a temperature of 25±0.5° C., and a humidity level of 55±5%. The rats' body weights were measured once per week and recorded.
The rats were weighed weekly to monitor the fluctuations in body weight within each experimental group.

[2] = system: rats with nonalcoholic steatohepatitis induced by a high-fat diet and CCl4; assay: Four indices of serum hepatic fibrosis, high-fat diet and CCl4 model; conditions: positive control group
Protocol: (§1) Starting from the seventh week, they received subcutaneous injections of a 30% CCl4 olive oil solution at a dosage of 0.2 ml/100 g behind their back twice per week for a total of four times. Once the model was successfully replicated, the corresponding drugs were administered orally (10 ml/kg) in each treatment group, and both the normal control group and the model group received equal volumes of a 0.5% CMC-Na solution once daily for ten consecutive weeks. Throughout the experimental period, the rats were provided with ad libitum access to food and water, while the animal chamber was maintained under controlled conditions of quietness, natural lighting, a temperature of 25±0.5° C., and a humidity level of 55±5%. The rats' body weights were measured once per week and recorded.
At the end of the tenth week of administration, all rats underwent a 16-hour fasting period following their final administration and were intraperitoneally injected with a 20% ulinastatin solution (10 ml/kg) for anesthesia. Subsequently, blood samples were collected from the abdominal aorta and allowed to stand for one hour, and then centrifuged at 4° C. for fifteen minutes at a speed of 3000 r/min. Finally, the upper serum was stored at −80° C. Following the instructions provided with the biochemical index detection kit, levels of HDL-C, LDL-C, NEFA, AST, ALT, UA, TC, TG, PCIII, IV-C LN and HA in rat serum were determined.

[3] = system: rats with nonalcoholic steatohepatitis induced by a high-fat diet and CCl4; assay: Liver histopathology (HE, oil red, Masson staining), high-fat diet and CCl4 model; conditions: positive control groups and NR218 high-, medium-, low-dose groups
Protocol: as §1, with “The normal control group were fed a standard diet while the other groups were exclusively fed a high-fat diet consisting of 88% basal diet +10% lard +2% cholesterol for the initial six weeks. Starting” for “Starting”
After collecting blood samples from the abdominal aorta of rats, the liver tissue was isolated and fixed in a 10% neutral formalin solution. Following standard procedures for embedding, sectioning, dewaxing, staining, clearing, and sealing, the liver tissues were subjected to HE (hematoxylin-eosin), Masson's trichrome, and oil red staining techniques respectively. […]

COC(=O)c1cc(OC)c2c(c1-c1c(CO)cc(OC)c3c1OCO3)OCO2 [Bicyclol]
body weight ([1]; week 0 (pre-administration)): 195.09 ± 3.95
body weight ([1]; week 1 (pre-administration)): 254.99 ± 12.09
body weight ([1]; week 2 (pre-administration)): 307.37 ± 12.92
body weight ([1]; week 3 (pre-administration)): 343.86 ± 17.21
body weight ([1]; week 4 (pre-administration)): 379.51 ± 22.29
body weight ([1]; week 5 (pre-administration)): 413.81 ± 26.94
body weight ([1]; week 6 (pre-administration)): 444.77 ± 32.35
body weight ([1]; week 7 (pre-administration)): 461.64 ± 35.88
body weight ([1]; week 8 (pre-administration)): 493.67 ± 41.04
body weight ([1]; week 9 (pre-administration)): 510.27 ± 41.17
body weight ([1]; week 10 (pre-administration)): 526.93 ± 47.38
body weight ([1]; week 11 (pre-administration)): 541.47 ± 50.20
body weight ([1]; week 12 (pre-administration)): 550.05 ± 58.70
body weight ([1]; week 13): 526.35 ± 68.66
body weight ([1]; week 14): 515.27 ± 58.62
body weight ([1]; week 15): 519.07 ± 54.38
body weight ([1]; week 16): 539.33 ± 58.40
body weight ([1]; week 17): 562.79 ± 61.59
body weight ([1]; week 18): 588.75 ± 70.94
body weight ([1]; week 19): 593.71 ± 72.81
body weight ([1]; week 20): 586.53 ± 112.38
HA [2]: 45.78 ± 22.99 µg/L
IV-C [2]: 13.22 ± 4.50 µg/L
LN [2]: 110.64 ± 44.60 µg/L
PC-III [2]: 8.78 ± 1.87 µg/L
Oil red O staining of liver tissue (in words) [3]: significantly ameliorated steatosis severity and reduced lipid droplet content
